Assay results: patent US7238716B2, “Alkanoic acid derivatives process for their production and use thereof” (Takeda Pharmaceuticals Company Limited, priority 2000, dated 2007)
pEC50: −log10 of the molar value.

biological target: T1, PPARγ-RXRα heterodimer (Homo sapiens, UniProt P37231); experiment: PPARγ-RXRα heterodimer ligand activity, luciferase reporter in PPARγ:RXRα:4ERPP/CHO-K1 cells (Test Example 3); type: cell-based; conditions: concentration for 50% of the maximum fold induction of luciferase activity; 48 hours, CHO-K1 cells
T1 construct: expressed in transfected cells; host or cells: CHO-K1
T1 sequence (P37231 1-477 isoform P37231-2): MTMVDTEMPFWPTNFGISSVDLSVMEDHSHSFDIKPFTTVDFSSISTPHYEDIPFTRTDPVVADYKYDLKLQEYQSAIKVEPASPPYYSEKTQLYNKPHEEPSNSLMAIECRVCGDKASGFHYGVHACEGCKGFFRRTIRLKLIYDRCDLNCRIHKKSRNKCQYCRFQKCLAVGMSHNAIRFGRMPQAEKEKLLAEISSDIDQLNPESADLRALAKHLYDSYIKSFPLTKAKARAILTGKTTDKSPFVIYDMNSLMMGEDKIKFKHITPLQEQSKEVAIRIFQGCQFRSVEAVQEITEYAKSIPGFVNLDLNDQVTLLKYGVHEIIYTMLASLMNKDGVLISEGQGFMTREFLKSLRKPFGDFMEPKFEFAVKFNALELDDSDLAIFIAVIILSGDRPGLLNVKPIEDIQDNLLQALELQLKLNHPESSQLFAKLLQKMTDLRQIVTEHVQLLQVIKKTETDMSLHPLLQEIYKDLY
T1 sequence (P19793 1-462 partner): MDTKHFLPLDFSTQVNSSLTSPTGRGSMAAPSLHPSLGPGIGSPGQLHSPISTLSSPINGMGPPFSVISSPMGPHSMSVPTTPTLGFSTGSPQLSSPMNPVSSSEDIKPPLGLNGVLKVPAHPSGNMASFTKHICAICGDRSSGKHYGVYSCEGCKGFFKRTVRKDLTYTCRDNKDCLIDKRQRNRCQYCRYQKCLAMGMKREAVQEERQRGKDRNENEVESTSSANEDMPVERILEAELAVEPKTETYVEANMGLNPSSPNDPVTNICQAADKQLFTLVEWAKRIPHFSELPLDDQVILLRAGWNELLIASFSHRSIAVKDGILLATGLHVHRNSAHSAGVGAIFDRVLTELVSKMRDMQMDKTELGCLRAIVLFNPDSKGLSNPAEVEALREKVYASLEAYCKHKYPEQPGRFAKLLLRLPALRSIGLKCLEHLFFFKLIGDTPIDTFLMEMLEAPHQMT
Method: A PPARγ:RXRα:4ERPP/CHO-K1 cells obtained in Reference Example 5 described later were cultured in HAM F12 medium (produced by NISSUI SEIYAKU) containing 10% Fetal bovine serum (produced by Life Technologies, Inc., USA) and then inoculated to a 96-well white plate (produced by Corning Costar Corporation, USA) at the density of 2×10^4 cells/well, and cultured in a CO2 gas incubator at 37° C. overnight.
After washing the 96 well white plate with PBS (Phosphate-buffered saline), 90 μl of HAM F12 medium containing 0.1% fatty acid-free bovine serum albumin (BSA) and 10 μl of test compound were added, which was cultured in a CO2 gas incubator at 37° C. for 48 hours. After removing the medium, 40 μl of PIKKAGENE 7.5 (produced by Wako Pure Chemical Industries, Ltd.) was added. After stirring, the luciferase activity was determined using Lumistar (produced by BMG Labtechnologies GmbH, Germany).
A fold induction was calculated based on the luciferase activity of each test compound by taking the luciferase activity in the test compound non administration group as 1. The values of the test compound, concentration and the fold induction were analyzed using PRISM 2.01 (produced by GraphPad Software Inc. USA) to calculate the EC50 values, the effective concentration of a test compound for 50% of the maximum fold induction.
After a CHO-K1 cell cultured in a 750 ml tissue culture flask (produced by Corning-Costar Corporation, USA) containing HAM F12 medium (produced by NISSUI SEIYAKU) supplemented with 10% Fetal Bovine Serum (produced by Life Technologies, Inc., USA) was scraped by treating with 0.5 g/L trypsin-0.2 g/L EDTA (ethylenediaminetetraacetic acid) (produced by Life Technologies, Inc., USA), the cell was washed with PBS (phosphate buffered saline) (produced by Life Technologies, Inc., USA), centrifuged (1000 rpm, 5 minutes), and then suspended in PBS. Subsequently, a DNA was introduced into the cell under the condition shown below using GENE PULSER (produced by Bio-Rad Laboratories, USA).
Namely, to a cuvette having a 0.4 cm gap, added were 8×10^6 cells and 10 μg of plasmid pVgRXR2-hPPARγ obtained in Reference Example 3 and 10 μg of reporter plasmid pGL3-4ERPP-TK neo obtained in Reference Example 4, which was subjected to electroporation at the voltage of 0.25 kV under the capacitance of 960 μF. Subsequently, the cell was transferred into a HAM F12 medium containing 10% Fetal Bovine. Serum and cultured for 24 hours. Then the cell was scraped again and centrifuged, and then suspended in HAM F12 medium containing 10% Fetal Bovine Serum supplemented with 500 μg/ml of GENETICIN (produced by Life Technologies, Inc., USA) and 250 μg/ml of ZEOCIN (produced by Invitrogen, USA). The suspension was diluted to the density of 10^4 cells/ml, and inoculated to a 96-well plate (produced by Corning Costar Corporation, USA), which was cultured in a CO2 gas incubator at 37° C., whereby obtaining a GENETICIN- and ZEOCIN-resistant transformant.
Subsequently, after the transformant cell line thus obtained was cultured in a 24-well plate (produced by Corning Costar Corporation, USA), selected was a cell line, PPARγ:RXRα:4ERPP/CHO-K1 cell, in which the luciferase was expressed and induced by addition of 10 μM pioglitazone hydrochloride.

| Compound | pEC50 |
| --- | --- |
| Cc1sc(-c2ccccc2)nc1COc1ccc(COc2ncccc2CC(=O)O)cc1 [Example 93, 2-[2-[4-[(5-methyl-2-phenyl-4-thiazolyl)methoxy]benzyloxy]-3-pyridyl]acetic acid] | 6.41 |
| O=C(O)Cc1ccccc1OCc1ccc(OCc2csc(-c3ccccc3)n2)cc1 [Example 51, 2-[2-[4-[(2-phenyl-4-thiazolyl)methoxy]benzyloxy]phenyl]acetic acid] | 5.92 |
| Cc1oc(-c2ccccc2)nc1COc1ccc(COc2ccccc2CC(=O)O)cn1 [Example 41, 2-[2-[[6-[(5-methyl-2-phenyl-4-oxazolyl)methoxy]-3-pyridyl]methoxy]phenyl]acetic acid] | 7.82 |
| CCOc1ccc(OCc2ccc(OCc3nc(-c4ccccc4)oc3C)cc2)c(CCC(=O)O)c1 [Example 29, 3-[5-ethoxy-2-[4-[(5-methyl-2-phenyl-4-oxazolyl)methoxy]benzyloxy]phenyl]propionic acid] | 7.60 |
| Cc1oc(-c2ccccc2)nc1COc1cccc(COc2cccc(CC(=O)O)c2)c1 [Example 32, 2-[[3-[3-(5-methyl-2-phenyl-4-oxazolyl)methoxy]benzyloxy]phenyl]acetic acid] | 7.11 |
| Cc1oc(-c2ccccc2)nc1CCc1noc(COc2ccccc2CC(=O)O)n1 [Example 107, 2-[2-[[3-[2-(5-methyl-2-phenyl-4-oxazolyl)ethyl]-1,2,4-oxadiazol-5-yl]methoxy]phenyl]acetic acid] | 7.06 |
| Cc1oc(-c2ccco2)nc1COc1ccc(COc2ccccc2CC(=O)O)cc1 [Example 50, 2-[2-[4-[[2-(2-furyl)-5-methyl-4-oxazolyl]methoxy]benzyloxy]phenyl]acetic acid] | 6.74 |
| Cc1oc(-c2ccccc2)nc1COc1cc(COc2cccc(CC(=O)O)c2)ccn1 [Example 62, 2-[3-[2-[(5-methyl-2-phenyl-4-oxazolyl)methoxy]-4-pyridylmethoxy]phenyl]acetic acid] | 7.70 |
| COc1ccc(OCc2ccc(OCc3nc(-c4ccccc4)oc3C)cc2)c(CC(=O)O)c1 [Example 24, 2-[5-methoxy-2-[4-[(5-methyl-2-phenyl-4-oxazolyl)methoxy]benzyloxy]phenyl]acetic acid] | 6.80 |
| Cc1sc(-c2ccccc2)nc1COc1ccc(COc2ccccc2CC(=O)O)cc1 [Example 52, 2-[2-[4-[(5-methyl-2-phenyl-4-thiazolyl)methoxy]benzyloxy]phenyl]acetic acid] | 6.64 |
| Cc1ccc(CC(=O)O)c(OCc2ccc(OCc3nc(-c4ccccc4)oc3C)cc2)n1 [Example 110, 2-[6-methyl-2-[4-[(5-methyl-2-phenyl-4-oxazolyl)methoxy]benzyloxy]-3-pyridyl]acetic acid] | 7.38 |
| Cc1oc(-c2ccccc2)nc1COc1ccc(COc2ccccc2CC(=O)O)cc1 [Example 11, 2-[2-[4-[(5-methyl-2-phenyl-4-oxazolyl)methoxy]benzyloxy]phenyl]acetic acid] | 7.21 |
| COc1cc(COc2ncccc2CC(=O)O)ccc1OCc1nc(-c2ccccc2)oc1C [Example 91, 2-[2-[3-methoxy-4-[(2-phenyl-5-methyl-4-oxazolyl)methoxy]benzyloxy]-3-pyridyl]acetic acid] | 8.77 |
| COc1cc(COc2ccccc2CC(=O)O)ccc1OCc1nc(-c2ccccc2)oc1C [Example 48, 2-[2-[3-methoxy-4-[(2-phenyl-5-methyl-4-oxazolyl)methoxy]benzyloxy]phenyl]acetic acid] | 7.74 |
| Cc1oc(-c2ccccc2)nc1COc1ccc(COc2ncccc2CC(=O)O)cc1 [Example 36, 2-[2-[4-[(5-methyl-2-phenyl-4-oxazolyl)methoxy]benzyloxy]-3-pyridyl]acetic acid] | 7.48 |
| Cc1oc(-c2ccccc2)nc1CCc1ccc(COc2ccccc2CC(=O)O)cc1 [Example 97, 2-[2-[4-[2-(5-methyl-2-phenyl-4-oxazolyl)ethyl]benzyloxy]phenyl]acetic acid] | 7.59 |
| Cc1oc(-c2ccccc2)nc1COc1cc(COc2ccccc2CC(=O)O)on1 [Example 79, 2-[2-[3-(5-methyl-2-phenyl-4-oxazolylmethoxy)-5-isoxazoly]methoxylphenyl]acetic acid] | 8.04 |
| Cc1oc(-c2ccccc2)nc1COc1ccc(COc2cccnc2CC(=O)O)cc1 [Example 37, 2-[3-[4-[(5-methyl-2-phenyl-4-oxazolyl)methoxy]benzyloxy]-2-pyridyl]acetic acid] | 6.21 |
| Cc1oc(-c2ccco2)nc1COc1ccc(COc2ncccc2CC(=O)O)cc1 [Example 92, 2-[2-[4-[[2-(2-furyl)-5-methyl-4-oxazolyl]methoxy]benzyloxy]-3-pyridyl]acetic acid] | 6.43 |
| Cc1oc(-c2ccc3ccccc3c2)nc1COc1ccc(COc2ncccc2CC(=O)O)cc1 [Example 130, 2-[2-[4-[5-methyl-2-(2-naphthyl)-4-oxazolylmethoxy]benzyloxy]-3-pyridyl]acetic acid] | 7.96 |
| Cc1oc(-c2ccccc2)nc1COc1ccc(COc2cccc(CC(=O)O)c2)cc1 [Example 1, 2-[3-[4-[(5-methyl-2-phenyl-4-oxazolyl)methoxy]benzyloxy]phenyl]acetic acid] | 6.54 |
| CCOc1ccc(OCc2ccc(OCc3nc(-c4ccccc4)oc3C)cc2)c(CC(=O)O)c1 [Example 26, 2-[5-ethoxy-2-[4-[(5-methyl-2-phenyl-4-oxazolyl)methoxy]benzyloxy]phenyl]acetic acid] | 7.46 |
| Cc1oc(-c2ccccc2)nc1COc1ccc(COc2ccc(Cl)cc2CC(=O)O)cc1 [Example 18, 2-[5-chloro-2-[4-[(5-methyl-2-phenyl-4-oxazolyl)methoxy]benzyloxy]phenyl]acetic acid] | 5.54 |
| CCOc1ccc(OCc2ccc(OCc3nc(-c4ccccc4)oc3C)cc2)cc1CCC(=O)O [Example 7, 3-[2-ethoxy-5-[4-[(5-methyl-2-phenyl-4-oxazolyl)methoxy]benzyloxy]phenyl]propionic acid] | 7.44 |
| Cc1ccc(OCc2ccc(OCc3nc(-c4ccccc4)oc3C)cc2)c(CC(=O)O)c1 [Example 15, 2-[5-methyl-2-[4-[(5-methyl-2-phenyl-4-oxazolyl)methoxy]benzyloxy]phenyl]acetic acid] | 6.70 |
| Cc1oc(-c2ccccc2)nc1COc1cc(COc2ncccc2CC(=O)O)on1 [Example 129, 2-[2-[[3-[(5-methyl-2-phenyl-4-oxazolyl)methoxy]-5-isoxazolyl]methoxy]-3-pyridyl]acetic acid] | 7.23 |
